According to US10344019B2 (priority 2010, dated 2019):
Like-named read-outs stand apart in the source and are kept apart here.

What was measured:
Assay type in all cases: cell-based
[1] = test system: HCV 2a Rluc cells (NS5A chimeric genotype 2a JFH-1 replicon with genotype 2a J6 strain NS5A gene, M31 present); assay: HCV replicon reporter assay, genotype 2a J6 (M31 present); conditions: Hepatitis C virus, read-out: 2a J6
In short: (§1)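 Renilla luciferase HCV replicon cells: dicistronic 1b Con1, 1a H77 or 2a JFH-1 replicons, or a JFH-1 chimera carrying J6 NS5A (M31 present). Compound in DMSO serial dilutions, 72 h incubation, then lysis and luciferase read. EC50 by non-linear regression.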

[2] = test system: HCV 4a Rluc cells (NS5A chimeric genotype 1b Con1 replicon with genotype 4a NS5A gene); assay: microbe, parasite or virus in culture; conditions: Hepatitis C virus, read-out: 4a
In short: (§2)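 Replicon cells stably carrying the listed RLuc-encoding dicistronic replicons were seeded and treated with DMSO serial dilutions of compound (10 mM stocks) diluted into culture medium. After 72 h, cells were lysed and Renilla luciferase activity measured. EC50 was derived by non-linear regression.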

[3] = test system: HCV 2b Rluc cells (NS5A chimeric genotype 2a JFH-1 replicon with genotype 2b MD2b-1 NS5A gene, M31 present); assay: microbe, parasite or virus in culture; conditions: Hepatitis C virus, read-out: 2b
In short: as §2

[4] = test system: HCV 3a RLuc cells (NS5A chimeric genotype 1b Con1 replicon with consensus genotype 3a NS5A gene); assay: microbe, parasite or virus in culture
In short: as §2

[5] = test system: HCV 1b RLuc cells (dicistronic genotype 1b Con1 replicon, RLuc reporter); assay: microbe, parasite or virus in culture; conditions: Hepatitis C virus, read-out: 1b (nM)
In short: as §1

[6] = test system: HCV 1a RLuc cells (dicistronic genotype 1a H77 replicon, RLuc reporter); assay: microbe, parasite or virus in culture; conditions: Hepatitis C virus, read-out: 1a
In short: as §1

[7] = test system: HCV 2a JFH-1 Rluc cells (dicistronic genotype 2a JFH-1 replicon, RLuc reporter); assay: microbe, parasite or virus in culture; conditions: Hepatitis C virus, genotype 2a JFH-1 replicon, read-out: 2a JFH
In short: as §1

[8] = Hepatitis C virus, read-out: 3a, genotype 3a NS5A chimeric 1b Con1 replicon
[9] = genotype 1a H77 replicon, RLuc reporter
[10] = Hepatitis C virus, read-out: 3a, genotype 3a replicon

Structure (SMILES) | EC50 [1] [nM] | EC50 [2] [nM] | EC50 [3] [nM] | EC50 [4, 8] [nM] | EC50 [5] [nM] | EC50 [6, 9] [nM] | EC50 ([7]; RLuc reporter) [nM] | EC50 ([4]; read-out: 3a, genotype 3a NS5A chimeric 1b Con1 replicon) [nM] | EC50 [4, 10] [nM] | EC50 ([6]; genotype 1a replicon) [nM] | EC50 [7] [nM]
COC(=O)N[C@H](C(=O)N1CCC[C@H]1c1ncc(-c2ccc3cc(-c4ccc(-c5cnc([C@@H]6C[C@H](F)CN6C(=O)[C@H](NC(=O)OC)c6ccccc6)[nH]5)cc4)ccc3c2)[nH]1)C(C)C [Example 129] | > 44 | 0.001 to 0.99 | > 44 | 0.001 to 0.99 | 0.007 | 0.001 to 0.999 | 0.001 to 0.999 | – | – | – | –
CCO[C@H]1C[C@@H](c2ncc(-c3ccc(-c4ccc5cc(-c6cnc([C@@H]7CCCN7C(=O)[C@@H](NC(=O)OC)C(C)C)[nH]6)ccc5c4)cc3)[nH]2)N(C(=O)[C@H](NC(=O)OC)c2ccccc2)C1 [Example 157] | > 44 | 0.001 to 0.99 | 1 to 44 | 1 to 4.99 | 0.008 | 0.001 to 0.999 | 0.001 to 0.999 | – | – | – | –
COC(=O)N[C@H](C(=O)N1CCC[C@H]1c1ncc(-c2ccc3cc(-c4ccc(-c5cnc([C@@H]6C[C@@H](C)CN6C(=O)[C@H](NC(=O)OC)c6ccccc6)[nH]5)cc4)ccc3c2)[nH]1)C(C)C [Example 159] | > 44 | 0.001 to 0.99 | 1 to 44 | 0.001 to 0.99 | 0.006 | 0.001 to 0.999 | 0.001 to 0.999 | – | – | – | –
COC(=O)N[C@H](C(=O)N1CCC[C@H]1c1ncc(-c2ccc3cc(-c4ccc5c(ccc6nc([C@@H]7CCCN7C(=O)[C@H](NC(=O)OC)c7ccccc7)[nH]c65)c4)ccc3c2)[nH]1)C(C)C [Example 169] | > 44 | 0.001 to 0.99 | > 44 | 0.001 to 0.99 | 0.006 | 0.001 to 0.999 | 0.001 to 0.999 | – | – | – | –
COC(=O)N[C@H](C(=O)N1CCC[C@H]1c1ncc(-c2ccc3cc(-c4ccc5c(c4)CCc4nc([C@@H]6CCCN6C(=O)[C@@H](NC(=O)OC)C6CCOCC6)[nH]c4-5)ccc3c2)[nH]1)C(C)C [Example 198] | > 44 | 0.001 to 0.99 | > 44 | – | 0.018 | 0.001 to 0.999 | 0.001 to 0.999 | 1 to 4.99 | – | – | –
COC(=O)N[C@H](C(=O)N1CCC[C@H]1c1nc2ccc3cc(-c4ccc5cc(-c6cnc([C@@H]7CCCN7C(=O)[C@H](NC(=O)OC)c7ccccc7)[nH]6)ccc5c4)ccc3c2[nH]1)C(C)C [Example 206] | 1 to 44 | 0.001 to 0.99 | > 44 | 0.001 to 0.99 | 0.005 | 0.001 to 0.999 | 0.001 to 0.999 | – | – | – | –
COC(=O)N[C@H](C(=O)N1CCC[C@H]1c1ncc(-c2ccc3cc(-c4ccc(-c5cnc([C@@H]6CC(F)(F)CN6C(=O)[C@H](NC(=O)OC)c6ccccc6)[nH]5)cc4)ccc3c2)[nH]1)C(C)C [Example 260] | > 44 | 0.001 to 0.99 | > 44 | 0.001 to 0.99 | 0.004 | 0.001 to 0.999 | 0.001 to 0.999 | – | – | – | –
COC(=O)N[C@H](C(=O)N1CCC[C@H]1c1ncc(-c2ccc3c(ccc4cc(-c5cnc([C@@H]6CCCN6C(=O)[C@@H](NC(=O)OC)C(C)C)[nH]5)ccc43)c2)[nH]1)C(C)C [Example 282] | > 44 | 0.001 to 0.99 | > 44 | 0.001 to 0.99 | 0.007 | 0.001 to 0.999 | 0.001 to 0.999 | – | – | – | –
COC(=O)N[C@H](C(=O)N1[C@@H]2CC[C@@H](C2)[C@H]1c1nc2ccc3cc(-c4ccc5c(ccc6nc([C@@H]7CCCN7C(=O)[C@@H](NC(=O)OC)C7CCOCC7)[nH]c65)c4)ccc3c2[nH]1)C(C)C [Example 298] | 0.001 to 0.999 | 0.001 to 0.99 | 1 to 44 | – | 0.077 | – | – | – | 0.001 to 0.99 | 0.001 to 0.999 | 0.001 to 0.999
COC(=O)N[C@H](C(=O)N1[C@@H]2CC[C@@H](C2)[C@H]1c1nc2ccc3cc(-c4ccc5c(ccc6nc([C@@H]7CCCN7C(=O)[C@H](NC(=O)OC)c7ccccc7)[nH]c65)c4)ccc3c2[nH]1)C(C)C [Example 314] | 0.001 to 0.999 | 0.001 to 0.99 | 0.001 to 0.999 | – | 0.026 | – | – | – | 0.001 to 0.99 | 0.001 to 0.999 | 0.001 to 0.999
COC(=O)N[C@H](C(=O)N1CC2(C[C@H]1c1nc3ccc4cc(-c5ccc6c(ccc7nc([C@@H]8CCCN8C(=O)[C@H](NC(=O)OC)c8ccccc8)[nH]c76)c5)ccc4c3[nH]1)OCCO2)C(C)C [Example 323] | 0.001 to 0.999 | 0.001 to 0.99 | 0.001 to 0.999 | – | 0.043 | – | – | – | 0.001 to 0.99 | 0.001 to 0.999 | 0.001 to 0.999
COC(=O)N[C@H](C(=O)N1CCC[C@H]1c1nc(Cl)c(-c2ccc(-c3ccc(-c4[nH]c([C@@H]5CCCN5C(=O)[C@@H](NC(=O)OC)C(C)C)nc4Cl)cc3)cc2)[nH]1)C(C)C [Example 352] | 1 to 44 | 0.001 to 0.99 | 1 to 44 | – | 0.011 | – | – | – | 0.001 to 0.99 | 0.001 to 0.999 | 0.001 to 0.999
COC(=O)N[C@H](C(=O)N1CC2(C[C@H]1c1nc3c([nH]1)-c1ccc(-c4ccc5c(ccc6nc([C@@H]7CCCN7C(=O)[C@H](NC(=O)OC)c7ccccc7)[nH]c65)c4)cc1CC3)OCCO2)C(C)C [Example 355] | 1 to 44 | 0.001 to 0.99 | 1 to 44 | – | 0.095 | – | – | – | 0.001 to 0.99 | 0.001 to 0.999 | 0.001 to 0.999
COC(=O)N[C@H](C(=O)N1CC2(C[C@H]1c1nc3ccc4cc(-c5ccc6c(ccc7nc([C@@H]8C[C@H]9C[C@H]9N8C(=O)[C@H](NC(=O)OC)c8ccccc8)[nH]c76)c5)ccc4c3[nH]1)OCCO2)C(C)C [Example 356] | 0.001 to 0.999 | 0.001 to 0.99 | 0.001 to 0.999 | – | 0.022 | – | – | – | 0.001 to 0.99 | 0.001 to 0.999 | 0.001 to 0.999
COC(=O)N[C@H](C(=O)N1[C@@H]2CC[C@@H](C2)[C@H]1c1nc2ccc3cc(-c4ccc5c(ccc6nc([C@@H]7CCCN7C(=O)[C@H](NC(=O)C(C)(C)O)c7ccccc7)[nH]c65)c4)ccc3c2[nH]1)C(C)C [Example 357] | 0.001 to 0.999 | 0.001 to 0.99 | 0.001 to 0.999 | – | 0.044 | – | – | – | 0.001 to 0.99 | 0.001 to 0.999 | 0.001 to 0.999
COC(=O)N[C@H](C(=O)N1[C@@H]2CC[C@@H](C2)[C@H]1c1nc2ccc3cc(-c4ccc5c(ccc6nc([C@@H]7CCCN7C(=O)[C@H](NC(=O)N7CCOCC7)c7ccccc7)[nH]c65)c4)ccc3c2[nH]1)C(C)C [Example 358] | 0.001 to 0.999 | 0.001 to 0.99 | 0.001 to 0.999 | – | 0.057 | – | – | – | 0.001 to 0.99 | 0.001 to 0.999 | 0.001 to 0.999
COC(=O)N[C@H](C(=O)N1CCC[C@H]1c1nc2ccc3cc(-c4ccc5c(ccc6nc([C@@H]7CC8(CN7C(=O)[C@@H](NC(=O)OC)C(C)C)OCCO8)[nH]c65)c4)ccc3c2[nH]1)C(C)C [Example 363] | 1 to 44 | 0.001 to 0.99 | > 44 | – | 0.025 | – | – | – | 1 to 4.99 | 0.001 to 0.999 | 0.001 to 0.999
COC(=O)N[C@H](C(=O)N1CCC[C@H]1c1ncc(-c2cc3c4c(c2)OCc2cc(-c5cnc([C@@H]6CCCN6C(=O)[C@H](NC(=O)OC)c6ccccc6)[nH]5)cc(c2-4)OC3)[nH]1)C1CCOCC1 [Example 364] | 0.001 to 0.999 | 0.001 to 0.99 | 0.001 to 0.999 | – | 0.335 | – | – | – | 0.001 to 0.99 | 0.001 to 0.999 | 0.001 to 0.999
COC(=O)N[C@H](C(=O)N1CC2(C[C@H]1c1nc3ccc4cc(-c5ccc6c(c5)CCc5nc(C7CCCN7C(=O)[C@H](NC(=O)OC)c7ccccc7)[nH]c5-6)ccc4c3[nH]1)OCCO2)C(C)C (stereo partly drawn) [Example 365] | 0.001 to 0.999 | 0.001 to 0.99 | 0.001 to 0.999 | – | 0.11 | – | – | – | 0.001 to 0.99 | 0.001 to 0.999 | 0.001 to 0.999
CC#Cc1cc(-c2cnc([C@@H]3CCCN3C(=O)[C@H](NC(=O)OC)c3ccccc3)[nH]2)ccc1-c1ccc2c(ccc3nc([C@@H]4CCCN4C(=O)[C@@H](NC(=O)OC)C(C)C)[nH]c32)c1 [Example 374] | 0.001 to 0.999 | 0.001 to 0.99 | 1 to 44 | – | 0.019 | – | – | – | 0.001 to 0.99 | 0.001 to 0.999 | 0.001 to 0.999
COC(=O)N[C@H](C(=O)N1[C@@H]2CC[C@@H](C2)[C@H]1c1ncc(-c2ccc(-c3ccc4c(ccc5nc([C@@H]6C[C@H]7C[C@H]7N6C(=O)[C@H](NC(=O)OC)c6ccccc6)[nH]c54)c3)cc2)[nH]1)C(C)C [Example 379] | 0.001 to 0.999 | 0.001 to 0.99 | > 44 | – | 0.009 | – | – | – | 0.001 to 0.99 | 0.001 to 0.999 | 0.001 to 0.999
